# PubChem BioAssay (NCI)
# Where “and” joins values, the source holds several entries; their conditions need not be identical. Equal entries are not always repeated.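 Five concentrations, 48 hours, 96-well plates. Here, GI50 denotes the concentration required for 50% inhibition of growth. TGI marks complete inhibition of growth.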
# Tests used:
# Experiment in all cases: NCI-60 cell line screen, 48 h
# [1] = system: MALME-3M melanoma
# [2] = system: SK-OV-3 ovarian
# [3] = system: T-47D breast
# [4] = system: TK-10 renal
# [5] = system: MDA-MB-435
# [6] = system: UACC-62 melanoma
# [7] = system: SR leukemia
# [8] = system: 786-0 renal
# [9] = system: OVCAR-8 ovarian
# [10] = system: CAKI-1 renal
# [11] = system: EKVX NSCLC
# [12] = system: SNB-19 CNS
# [13] = system: HCT-15 colon
# [14] = system: NCI-H522 lung
# [15] = system: SK-MEL-28 melanoma
# [16] = system: IGROV1 ovarian
# [17] = system: UACC-257 melanoma
# [18] = system: NCI-H23 lung
# [19] = system: U251 CNS
# [20] = system: M14 melanoma
# [21] = system: MOLT-4 leukemia
# [22] = system: HOP-92 NSCLC
# [23] = system: NCI-H226 lung
# [24] = system: OVCAR-3 ovarian
# [25] = system: NCI/ADR-RES ovarian
# [26] = system: SF-539 CNS
# [27] = system: HL-60(TB) leukemia
# [28] = system: RPMI-8226 leukemia
# [29] = system: SNB-75 CNS
# [30] = system: HS 578T breast
# [31] = system: CCRF-CEM leukemia
# [32] = system: HCT-116 colon
# [33] = system: ACHN renal
# [34] = system: A549 NSCLC
# [35] = system: SF-295 CNS
# [36] = system: MDA-MB-231 breast
# [37] = system: MCF7 breast
# [38] = system: SW-620 colon
# [39] = system: OVCAR-4 ovarian
# [40] = system: HCC-2998 colon
# [41] = system: SK-MEL-5 melanoma
# [42] = system: PC-3 prostate
# [43] = system: UO-31 renal
# [44] = system: OVCAR-5 ovarian
# [45] = system: RXF 393 renal
# [46] = system: HOP-62 NSCLC
# [47] = system: BT-549 breast
# [48] = system: SN12C renal
# [49] = system: NCI-H460 lung
# [50] = system: SK-MEL-2 melanoma
# [51] = system: HT29 colon
# [52] = system: COLO 205 colon
# [53] = system: DU-145 prostate
# [54] = system: KM12 colon
# [55] = system: A498 renal
# [56] = system: SF-268 CNS
# [57] = system: K-562 leukemia
# [58] = system: LOX IMVI melanoma
smiles,measurement,setting,value
COC(=O)c1c2c(c(C)[n+]([O-])c1C)C(=O)C(NCc1ccc(OC)cc1)=CC2=O,GI50,[1],0.28 µM
same,TGI,[1],1.1 µM
same,GI50,[2],4.11 µM
same,TGI,[2],15.8 µM
same,GI50,[3],2.12 µM
same,TGI,[3],5.47 µM
same,GI50,[4],4.62 µM
same,TGI,[4],20.1 µM
same,GI50,[5],1.73 µM
same,TGI,[5],3.15 µM
same,GI50,[6],1.72 µM
same,TGI,[6],3.62 µM
same,GI50,[7],2.47 µM
same,TGI,[7],> 100 µM
same,GI50,[8],3.15 µM
same,TGI,[8],18.8 µM
same,GI50,[9],2.78 µM
same,TGI,[9],> 100 µM
same,GI50,[10],2.9 µM
same,TGI,[10],11.2 µM
same,GI50,[11],1.88 µM
same,TGI,[11],4.44 µM
same,GI50,[12],2.11 µM
same,TGI,[12],5.03 µM
same,GI50,[13],1.64 µM
same,TGI,[13],3.72 µM
same,GI50,[14],1.95 µM
same,TGI,[14],4.73 µM
same,GI50,[15],2.95 µM
same,TGI,[15],11.3 µM
same,GI50,[16],1.5 µM
same,TGI,[16],3.45 µM
same,GI50,[17],1.63 µM
same,TGI,[17],3.42 µM
same,GI50,[18],1.81 µM
same,TGI,[18],4.26 µM
same,GI50,[19],2.57 µM
same,TGI,[19],8.82 µM
same,GI50,[20],1.81 µM
same,TGI,[20],3.71 µM
same,GI50,[21],2.36 µM
same,TGI,[21],6.63 µM
same,GI50,[22],2.64 µM
same,TGI,[22],5.91 µM
same,GI50,[23],3.45 µM
same,TGI,[23],13.5 µM
same,GI50,[24],0.315 µM
same,TGI,[24],1.2 µM
same,GI50,[25],2.42 µM
same,TGI,[25],7.49 µM
same,GI50,[26],1.68 µM
same,TGI,[26],3.39 µM
same,GI50,[27],1.67 µM
same,TGI,[27],5.25 µM
same,GI50,[28],2.41 µM
same,TGI,[28],7.78 µM
same,GI50,[29],3.5 µM
same,TGI,[29],14.3 µM
same,GI50,[30],3.81 µM
same,TGI,[30],36.6 µM
same,GI50,[31],2.86 µM
same,TGI,[31],12.8 µM
same,GI50,[32],2.17 µM
same,TGI,[32],7.13 µM
same,GI50,[33],2.35 µM
same,TGI,[33],9.11 µM
same,GI50,[34],2.9 µM
same,TGI,[34],10.2 µM
same,GI50,[35],1.79 µM
same,TGI,[35],5.09 µM
same,GI50,[36],2.2 µM
same,TGI,[36],6.14 µM
same,GI50,[37],1.41 µM
same,TGI,[37],3.35 µM
same,GI50,[38],1.95 µM
same,TGI,[38],4.26 µM
same,GI50,[39],1.12 µM
same,TGI,[39],2.38 µM
same,GI50,[40],2.27 µM
same,TGI,[40],5.94 µM
same,GI50,[41],1.13 µM
same,TGI,[41],2.39 µM
same,GI50,[42],2.31 µM
same,TGI,[42],10.4 µM
same,GI50,[43],2.48 µM
same,TGI,[43],10 µM
same,GI50,[44],1.8 µM
same,TGI,[44],4.06 µM
same,GI50,[45],1.55 µM
same,TGI,[45],3.7 µM
same,GI50,[46],3.64 µM
same,TGI,[46],97.2 µM
same,GI50,[47],2.96 µM
same,TGI,[47],13.3 µM
same,GI50,[48],1.62 µM
same,TGI,[48],3.65 µM
same,GI50,[49],1.7 µM
same,TGI,[49],6.39 µM
same,GI50,[50],2.23 µM
same,TGI,[50],5.88 µM
same,GI50,[51],2.15 µM
same,TGI,[51],> 100 µM
same,GI50,[52],0.839 µM
same,TGI,[52],2.75 µM
same,GI50,[53],3.02 µM
same,TGI,[53],10.2 µM
same,GI50,[54],2.19 µM
same,TGI,[54],8.68 µM
same,GI50,[55],2.06 µM
same,TGI,[55],4.97 µM
same,GI50,[56],2.64 µM
same,TGI,[56],10.3 µM
same,GI50,[57],2.67 µM
same,TGI,[57],> 100 µM
same,GI50,[58],2.41 µM
same,TGI,[58],7.3 µM
Cc1ccc(NC(=O)c2ccc(CN3CCN(C)CC3)cc2)cc1Nc1nc(-c2cccnc2)cs1,GI50,[1],7.14 µM and 2.26 µM
same,TGI,[1],21 µM and 6.92 µM
same,GI50,[2],19.1 µM and > 10 µM
same,TGI,[2],40 µM and > 10 µM
same,GI50,[3],4.89 µM and 1.87 µM
same,TGI,[3],22 µM and 7.06 µM
same,GI50,[4],16.8 µM and > 10 µM
same,TGI,[4],30.6 µM and > 10 µM
same,GI50,[5],8.24 µM and 5.64 µM
same,TGI,[5],21.6 µM and > 10 µM
same,GI50,[6],15 µM and 8.56 µM
same,TGI,[6],30.4 µM and > 10 µM
same,GI50,[7],2.72 µM and 1.91 µM
same,TGI,[7],18.6 µM and 4.67 µM
same,GI50,[8],3.53 µM and 2.84 µM
same,TGI,[8],11.5 µM and 7.92 µM
same,GI50,[9],6.91 µM and 3.65 µM
same,TGI,[9],19.8 µM and > 10 µM
same,GI50,[10],11.6 µM and > 10 µM
same,TGI,[10],24.9 µM and > 10 µM
same,GI50,[11],13.6 µM and > 10 µM
same,TGI,[11],29.8 µM and > 10 µM
same,GI50,[12],14.4 µM and 6.37 µM
same,TGI,[12],29.7 µM and > 10 µM
same,GI50,[13],4.52 µM and 3.18 µM
same,TGI,[13],19.5 µM and > 10 µM
same,GI50,[14],10.5 µM and 3.55 µM
same,TGI,[14],23.4 µM and > 10 µM
same,GI50,[15],12 µM and 2.66 µM
same,TGI,[15],24.5 µM and 8.57 µM
same,GI50,[16],15 µM and 7.66 µM
same,TGI,[16],35.6 µM and > 10 µM
same,GI50,[17],7.9 µM and 7.34 µM
same,TGI,[17],20.2 µM and > 10 µM
same,GI50,[18],12.6 µM and > 10 µM
same,TGI,[18],29.7 µM and > 10 µM
same,GI50,[19],3.74 µM and 2.92 µM
same,TGI,[19],14 µM and > 10 µM
same,GI50,[20],7.66 µM and 3.44 µM
same,TGI,[20],21.2 µM and > 10 µM
same,GI50,[21],3.11 µM and 2.67 µM
same,TGI,[21],18.3 µM and 9.64 µM
same,GI50,[22],11 µM and > 10 µM
same,TGI,[22],24.2 µM and > 10 µM
same,GI50,[23],7.94 µM and 4.12 µM
same,TGI,[23],29.6 µM and > 10 µM
same,GI50,[24],11.7 µM and 3.5 µM
same,TGI,[24],24.3 µM and > 10 µM
same,GI50,[25],22.7 µM and 7.39 µM
same,TGI,[25],> 86.7 µM
same,GI50,[26],1.7 µM and 1.13 µM
same,TGI,[26],6.81 µM and 2.48 µM
same,GI50,[27],2.25 µM and 0.4 µM
same,TGI,[27],6.96 µM and 5.47 µM
same,GI50,[28],3.19 µM and 2.31 µM
same,TGI,[28],18.2 µM and > 10 µM
same,GI50,[29],14.8 µM and 7.43 µM
same,TGI,[29],28.5 µM and > 10 µM
same,GI50,[30],8.45 µM and 3.52 µM
same,TGI,[30],41.6 µM and > 10 µM
same,GI50,[31],4.14 µM and 4.81 µM
same,TGI,[31],28.1 µM and > 10 µM
same,GI50,[32],3.74 µM and 3.05 µM
same,TGI,[32],14.8 µM and > 10 µM
same,GI50,[33],11.7 µM and 4.15 µM
same,TGI,[33],24.7 µM and > 10 µM
same,GI50,[34],12.1 µM and 8.01 µM
same,TGI,[34],27.1 µM and > 10 µM
same,GI50,[35],3.3 µM and 1.92 µM
same,TGI,[35],13.8 µM and 5.48 µM
same,GI50,[36],11.1 µM and 4.43 µM
same,TGI,[36],29.2 µM and > 10 µM
same,GI50,[37],5.97 µM and 2.84 µM
same,TGI,[37],21.7 µM and > 10 µM
same,GI50,[38],5.68 µM and 4.58 µM
same,TGI,[38],19.5 µM and > 10 µM
same,GI50,[39],11.6 µM and 7.8 µM
same,TGI,[39],26.5 µM and > 10 µM
same,GI50,[40],11.8 µM and > 10 µM
same,TGI,[40],26 µM and > 10 µM
same,GI50,[41],2.46 µM
same,TGI,[41],9.32 µM
same,GI50,[42],5.94 µM and 4.99 µM
same,TGI,[42],19.7 µM and > 10 µM
same,GI50,[43],12.4 µM and 6.42 µM
same,TGI,[43],26.9 µM and > 10 µM
same,GI50,[44],16.6 µM and > 10 µM
same,TGI,[44],31.1 µM and > 10 µM
same,GI50,[45],2.98 µM and 1.9 µM
same,TGI,[45],8.41 µM and 4 µM
same,GI50,[46],16.3 µM and > 10 µM
same,TGI,[46],29.9 µM and > 10 µM
same,GI50,[47],8.5 µM and 3.79 µM
same,TGI,[47],22.1 µM and > 10 µM
same,GI50,[48],13.9 µM and > 10 µM
same,TGI,[48],36 µM and > 10 µM
same,GI50,[49],7.33 µM and 5.34 µM
same,TGI,[49],22.5 µM and > 10 µM
same,GI50,[50],13.9 µM and > 10 µM
same,TGI,[50],27.3 µM and > 10 µM
same,GI50,[51],3.5 µM and 3.23 µM
same,TGI,[51],13.7 µM and > 10 µM
same,GI50,[52],8.14 µM and 3.69 µM
same,TGI,[52],22.6 µM and > 10 µM
same,GI50,[53],15 µM and > 10 µM
same,TGI,[53],28.4 µM and > 10 µM
same,GI50,[54],9.85 µM and 6.72 µM
same,TGI,[54],23.2 µM and > 10 µM
same,GI50,[55],16 µM and > 10 µM
same,TGI,[55],29.6 µM and > 10 µM
same,GI50,[56],12.6 µM and > 10 µM
same,TGI,[56],26.7 µM and > 10 µM
same,GI50,[57],0.617 µM and 2.96 µM
same,TGI,[57],> 100 µM
same,GI50,[58],2.47 µM and 3.06 µM
same,TGI,[58],5.8 µM and > 10 µM
